{
  "source": "patent EP0067711A2",
  "about": "“New 1-benzyl-3,4-dihydro-isoquinoline derivative” (CHINOIN Gyogyszer és Vegyészeti Termékek Gyára RT., priority 1981, dated 1982)",
  "key": {"[1]": {"system": "acute coronary insufficiency induced by vasopressine", "assay": "anti-angina activity: inhibition of vasopressine-induced acute coronary insufficiency (rise of T-wave on ECG), method of Papp and Szekeres", "format": "in vivo, rats belonging to the CFY strain", "details": "vasopressine 2 IU/kg i.v., pentobarbital anaesthetized CFY rats; papaverin = 1"}, "[2]": {"system": "electric fibrillation threshold of the auricle and ventricle", "assay": "antiarrhythmial effect: change of electric fibrillation threshold in chloralose-urethane anaesthetized cats", "format": "in vivo", "details": "1 mg/kg i.v.", "protocol": "The antiarrhythmial effect is determined on chloralose-urethane anaesthetized cats [500/300 mg/kg i.p.] by measuring the changes of the electric fibrillation threshold of the auricle and ventricle respectively [method of Szekeres, Méhes and Papp: Brit. 0. Pharmacol. 17, 167 (1961) and that of Szekeres and Papp: Hdb. exp. Pharmacol. 16/3, 131 (1975) respectively]. The general effects exerted on the haemodynamic and cardiovascular system are tested on pentobarbital anaesthetized dogs (35 mg/kg i.v.)."}, "[3]": {"system": "haemodynamic and cardiovascular system", "assay": "general effects on the haemodynamic and cardiovascular system in pentobarbital anaesthetized dogs", "format": "in vivo", "design": "A. vertebralis flow, Changed value: unit not given here", "details": "1 mg/kg i.v."}},
  "data": [
    {"compound": "CCOc1cc(CC2=NCCc3cc(OCC)c(OCC)cc32)ccc1O", "note": "[Formula VII, 6,7-diethoxy-1-(3-ethoxy-4-hydroxy-benzyl)-3,4-dihydro-isoquinoline, reference compound]", "values": [
      {"measurement": "anti-angina activity related to that of papaverin", "setting": "[1]", "value": 1.28},
      {"measurement": "Arterial blood pressure, Duration of effect", "setting": "[2]", "value": 5, "unit": "min"},
      {"measurement": "Arterial blood pressure, Percental difference", "setting": "[2]", "value": -23},
      {"measurement": "Auricle fibrillation threshold, Duration of effect", "setting": "[2]", "value": 9, "unit": "min"},
      {"measurement": "Auricle fibrillation threshold, Percental difference", "setting": "[2]", "value": "+48"},
      {"measurement": "Ventricle fibrillation threshold, Duration of effect", "setting": "[2]", "value": 12, "unit": "min"},
      {"measurement": "Ventricle fibrillation threshold, Percental difference", "setting": "[2]", "value": "+43"},
      {"measurement": "Auricle fibrillation threshold, Changed value", "setting": "[2]; average + S.E., basic value 0.52 ± 0.07", "value": "0.77 ± 0.19", "unit": "mA"},
      {"measurement": "Ventricle fibrillation threshold, Changed value", "setting": "[2]; average + S.E., basic value 0.70 ± 0.10", "value": "1.00 ± 0.18", "unit": "mA"},
      {"measurement": "Arterial blood pressure, Changed value", "setting": "[2]; average + S.E., basic value 142 ± 11", "value": "110 ± 16", "unit": "Hgmm"},
      {"measurement": "A. carotis flow, Duration of effect", "setting": "[3]", "value": 12, "unit": "min"},
      {"measurement": "A. carotis flow, Percental difference", "setting": "[3]", "value": -12},
      {"measurement": "A. carotis resistance, Duration of effect", "setting": "[3]", "value": 15, "unit": "min"},
      {"measurement": "A. femoralis flow, Duration of effect", "setting": "[3]", "value": 11, "unit": "min"},
      {"measurement": "A. femoralis resistance, Duration of effect", "setting": "[3]", "value": 18, "unit": "min"},
      {"measurement": "A. vertebralis flow, Duration of effect", "setting": "[3]", "value": 7, "unit": "min"},
      {"measurement": "A. vertebralis resistance, Duration of effect", "setting": "[3]", "value": 12, "unit": "min"},
      {"measurement": "A. vertebralis resistance, Percental difference", "setting": "[3]", "value": "+12"},
      {"measurement": "Arterial blood pressure, Duration of effect", "setting": "[3]", "value": 8, "unit": "min"},
      {"measurement": "Arterial blood pressure, Percental difference", "setting": "[3]", "value": -22},
      {"measurement": "Contractibility of the left ventricle (dp/dt), Percental difference", "setting": "[3]", "value": -13},
      {"measurement": "Coronary flow, Duration of effect", "setting": "[3]", "value": 15, "unit": "min"},
      {"measurement": "Coronary flow, Percental difference", "setting": "[3]", "value": "+18"},
      {"measurement": "Coronary resistance, Duration of effect", "setting": "[3]", "value": 11, "unit": "min"},
      {"measurement": "Coronary resistance, Percental difference", "setting": "[3]", "value": -22},
      {"measurement": "Efficiency of cardial function, Duration of effect", "setting": "[3]", "value": 20, "unit": "min"},
      {"measurement": "Efficiency of cardial function, Percental difference", "setting": "[3]", "value": -13},
      {"measurement": "Frequence volume, Duration of effect", "setting": "[3]", "value": 5, "unit": "min"},
      {"measurement": "Function of the left ventricle, Duration of effect", "setting": "[3]", "value": 13, "unit": "min"},
      {"measurement": "Function of the left ventricle, Percental difference", "setting": "[3]", "value": -19},
      {"measurement": "Heart frequence/min, Duration of effect", "setting": "[3]", "value": 7, "unit": "min"},
      {"measurement": "Minute volume, Duration of effect", "setting": "[3]", "value": 3, "unit": "min"},
      {"measurement": "Myocardial oxygenization (O2 supply per O2 consumption), Duration of effect", "setting": "[3]", "value": 18, "unit": "min"},
      {"measurement": "Myocardial oxygenization (O2 supply per O2 consumption), Percental difference", "setting": "[3]", "value": "+10"},
      {"measurement": "Oxygen consumption of the left ventricle, Duration of effect", "setting": "[3]", "value": 9, "unit": "min"},
      {"measurement": "Total peripherial resistance, Duration of effect", "setting": "[3]", "value": 14, "unit": "min"},
      {"measurement": "Total peripherial resistance, Percental difference", "setting": "[3]", "value": -32},
      {"measurement": "Efficiency of cardial function, Changed value", "setting": "[3]; average + S.E., basic value 0.32 ± 0.03", "value": "0.28 ± 0.05", "unit": "mkg/ml/100 g"},
      {"measurement": "Coronary resistance, Changed value", "setting": "[3]; average + S.E., basic value 1.03 ± 0.10", "value": "1.42 ± 0.22", "unit": "Hgmm/ml/min/100 g"},
      {"measurement": "Myocardial oxygenization (O2 supply per O2 consumption), Changed value", "setting": "[3]; average + S.E., basic value 1.62 ± 0.06", "value": "1.79 ± 0.10"},
      {"measurement": "A. carotis resistance, Changed value", "setting": "[3]; average + S.E., basic value 2.04 ± 0.3", "value": "2.19 ± 0.4", "unit": "Hgmm/ml/min"},
      {"measurement": "Function of the left ventricle, Changed value", "setting": "[3]; average + S.E., basic value 2.74 ± 0.49", "value": "2.22 ± 0.56", "unit": "mkg/min"},
      {"measurement": "A. vertebralis resistance, Changed value", "setting": "[3]; average + S.E., basic value 3.22 ± 0.61", "value": "3.65 ± 0.32", "unit": "Hgmm/ml/min"},
      {"measurement": "A. femoralis resistance, Changed value", "setting": "[3]; average + S.E., basic value 3.48 ± 0.45", "value": "3.69 ± 0.68", "unit": "Hgmm/ml/min"},
      {"measurement": "Frequence volume, Changed value", "setting": "[3]; average + S.E., basic value 8,8 ± 1", "value": "9.5 ± 1.2", "unit": "mL"},
      {"measurement": "Oxygen consumption of the left ventricle, Changed value", "setting": "[3]; average + S.E., basic value 8.4 ± 0.9", "value": "7.9 ± 1.9", "unit": "ml/min/100 g"},
      {"measurement": "A. femoralis flow, Changed value", "setting": "[3]; average + S.E., basic value 46 ± 5", "value": "42 ± 5", "unit": "mL/min"},
      {"measurement": "A. vertebralis flow, Changed value", "setting": "[3]; average + S.E., basic value 54 ± 9", "value": "50 ± 7"},
      {"measurement": "Coronary flow, Changed value", "setting": "[3]; average + S.E., basic value 73 ± 13", "value": "86 ± 13", "unit": "ml/min/100 g"},
      {"measurement": "A. carotis flow, Changed value", "setting": "[3]; average + S.E., basic value 91 ± 9", "value": "80 ± 10", "unit": "mL/min"},
      {"measurement": "Arterial blood pressure, Changed value", "setting": "[3]; average + S.E., basic value 147 ± 9", "value": "115 ± 11", "unit": "Hgmm"},
      {"measurement": "Heart frequence/min, Changed value", "setting": "[3]; average + S.E., basic value 173 ± 8", "value": "160 ± 9", "unit": "min⁻¹"},
      {"measurement": "Minute volume, Changed value", "setting": "[3]; average + S.E., basic value 1500 ± 153", "value": "1466 ± 233", "unit": "mL/min"},
      {"measurement": "Contractibility of the left ventricle (dp/dt), Changed value", "setting": "[3]; average + S.E., basic value 5625 ± 557", "value": "4883 ± 419", "unit": "Hgmm/sec"},
      {"measurement": "Total peripherial resistance, Changed value", "setting": "[3]; average + S.E., basic value 7015 ± 238", "value": "4785 ± 275", "unit": "dyn. sec. cm^-5"}
    ]}
  ]
}
